Assay results taken from the supplement of paper PMC12463676, “Small-molecule dissolution of stress granules by redox modulation benefits ALS models” (Nature Chemical Biology, 2025).

Tests used:
lipoamide = compound: NC(=O)CCCCC1CCSS1 [lipoamide]; experiment: thermal stability z-score vs DMSO; higher = more thermally stabilized by treatment; details: HeLa, lipoamide concentration 100 µM
Experimental: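 Cellular thermal proteome profiling in HeLa cells. Cells were treated with 100 µM lipoamide for 1 h, with or without 1 mM arsenate for a further 1 h, then heated to ten temperatures (37-66.3 °C), and soluble protein was quantified by TMT mass spectrometry relative to 0.1% DMSO controls. The thermal stability score (sum of log2 fold changes minus the abundance score) was transformed to a z-score; mean of n = 3 experiments.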

potassium arsenate = compound: O=[As]([O-])(O)O.[K+] [potassium arsenate]; experiment: as above; details: HeLa; arsenate concentration 1 mM
Experimental: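 Cellular thermal proteome profiling in HeLa cells treated with 1 mM arsenate for 1 h (DMSO pretreatment), heated to ten temperatures (37-66.3 °C). Soluble protein was quantified by TMT mass spectrometry relative to DMSO controls; the thermal stability score was transformed to a z-score; mean of n = 3 experiments.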

[1] = arsenate co-treatment: 1 mM arsenate 1 h
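Also: each temperature applied for 3 min, abundance score taken as mean log2 fold change at the two lowest temperatures, z-score obtained by mean subtraction and division by SD.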

UniProt Q8IZ81, sequence (Q8IZ81 whole entry): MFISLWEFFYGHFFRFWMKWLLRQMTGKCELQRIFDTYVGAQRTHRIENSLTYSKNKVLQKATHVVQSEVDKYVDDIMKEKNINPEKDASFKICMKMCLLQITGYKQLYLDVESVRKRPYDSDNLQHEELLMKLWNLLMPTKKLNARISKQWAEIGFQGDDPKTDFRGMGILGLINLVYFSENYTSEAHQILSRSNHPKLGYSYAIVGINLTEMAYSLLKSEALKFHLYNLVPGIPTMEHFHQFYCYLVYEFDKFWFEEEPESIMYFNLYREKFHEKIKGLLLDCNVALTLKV
UniProt O43310, sequence (O43310 whole entry): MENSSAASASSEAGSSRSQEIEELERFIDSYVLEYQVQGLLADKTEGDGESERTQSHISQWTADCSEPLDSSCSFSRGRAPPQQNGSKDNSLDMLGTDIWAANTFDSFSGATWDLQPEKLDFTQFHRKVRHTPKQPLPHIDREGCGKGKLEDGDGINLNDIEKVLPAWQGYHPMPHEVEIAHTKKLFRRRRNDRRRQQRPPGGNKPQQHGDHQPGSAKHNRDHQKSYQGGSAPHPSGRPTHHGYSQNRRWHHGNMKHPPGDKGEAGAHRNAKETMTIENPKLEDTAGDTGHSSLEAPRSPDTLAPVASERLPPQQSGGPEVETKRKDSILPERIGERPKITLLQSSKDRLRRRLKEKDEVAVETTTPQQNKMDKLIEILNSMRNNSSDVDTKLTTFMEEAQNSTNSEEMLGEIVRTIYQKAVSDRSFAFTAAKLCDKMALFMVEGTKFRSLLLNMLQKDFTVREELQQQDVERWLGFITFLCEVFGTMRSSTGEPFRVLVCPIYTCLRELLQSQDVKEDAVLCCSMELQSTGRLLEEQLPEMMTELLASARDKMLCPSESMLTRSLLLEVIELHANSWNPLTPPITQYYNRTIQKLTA
UniProt Q9NVA1, sequence (Q9NVA1 whole entry): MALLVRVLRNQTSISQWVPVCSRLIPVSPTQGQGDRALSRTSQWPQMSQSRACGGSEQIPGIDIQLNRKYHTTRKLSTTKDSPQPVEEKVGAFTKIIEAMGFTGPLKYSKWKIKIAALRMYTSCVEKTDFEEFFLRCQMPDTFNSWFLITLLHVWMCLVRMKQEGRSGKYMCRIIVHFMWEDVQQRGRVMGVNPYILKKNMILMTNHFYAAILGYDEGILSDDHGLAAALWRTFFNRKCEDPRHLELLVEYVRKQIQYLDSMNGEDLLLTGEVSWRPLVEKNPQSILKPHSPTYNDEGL
UniProt Q7RTS9, sequence (Q7RTS9 whole entry): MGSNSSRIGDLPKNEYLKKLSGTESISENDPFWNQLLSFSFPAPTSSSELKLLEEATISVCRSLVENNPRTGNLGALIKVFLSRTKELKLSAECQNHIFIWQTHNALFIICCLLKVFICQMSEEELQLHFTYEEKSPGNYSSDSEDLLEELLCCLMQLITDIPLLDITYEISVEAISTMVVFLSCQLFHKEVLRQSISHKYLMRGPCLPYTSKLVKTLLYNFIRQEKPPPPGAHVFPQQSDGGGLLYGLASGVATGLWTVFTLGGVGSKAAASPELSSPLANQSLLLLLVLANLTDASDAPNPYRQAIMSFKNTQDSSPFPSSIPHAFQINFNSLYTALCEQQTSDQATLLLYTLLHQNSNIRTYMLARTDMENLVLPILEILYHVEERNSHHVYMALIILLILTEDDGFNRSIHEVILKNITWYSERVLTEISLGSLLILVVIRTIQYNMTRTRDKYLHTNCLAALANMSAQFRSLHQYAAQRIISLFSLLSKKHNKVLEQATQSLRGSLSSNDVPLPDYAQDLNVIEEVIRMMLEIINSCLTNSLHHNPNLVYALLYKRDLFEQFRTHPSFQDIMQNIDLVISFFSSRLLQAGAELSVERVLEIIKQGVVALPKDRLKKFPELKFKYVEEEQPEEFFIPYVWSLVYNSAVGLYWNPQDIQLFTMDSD
UniProt P09543, sequence (P09543 whole entry): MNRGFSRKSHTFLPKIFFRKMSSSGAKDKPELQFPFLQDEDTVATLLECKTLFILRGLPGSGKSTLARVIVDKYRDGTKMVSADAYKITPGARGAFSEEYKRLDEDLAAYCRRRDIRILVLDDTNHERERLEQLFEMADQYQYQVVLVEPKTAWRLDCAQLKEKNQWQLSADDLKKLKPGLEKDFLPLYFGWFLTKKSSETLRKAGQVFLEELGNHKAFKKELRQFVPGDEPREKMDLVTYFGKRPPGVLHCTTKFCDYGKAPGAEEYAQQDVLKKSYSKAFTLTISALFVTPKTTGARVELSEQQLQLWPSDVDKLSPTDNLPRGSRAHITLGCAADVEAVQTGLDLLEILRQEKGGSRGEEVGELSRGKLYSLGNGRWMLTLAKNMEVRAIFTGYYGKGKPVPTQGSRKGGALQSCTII
UniProt P31942, sequence (P31942 whole entry): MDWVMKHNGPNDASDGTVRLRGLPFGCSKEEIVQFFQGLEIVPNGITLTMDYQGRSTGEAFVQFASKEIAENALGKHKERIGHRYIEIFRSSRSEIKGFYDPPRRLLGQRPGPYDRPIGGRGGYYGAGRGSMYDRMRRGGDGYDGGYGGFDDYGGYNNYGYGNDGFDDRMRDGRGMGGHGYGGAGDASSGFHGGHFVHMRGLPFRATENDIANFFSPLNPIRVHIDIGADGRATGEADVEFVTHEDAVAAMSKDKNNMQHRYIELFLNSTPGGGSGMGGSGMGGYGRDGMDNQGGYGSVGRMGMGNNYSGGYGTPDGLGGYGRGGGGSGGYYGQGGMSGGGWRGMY
UniProt Q9NTZ6, sequence (Q9NTZ6 whole entry): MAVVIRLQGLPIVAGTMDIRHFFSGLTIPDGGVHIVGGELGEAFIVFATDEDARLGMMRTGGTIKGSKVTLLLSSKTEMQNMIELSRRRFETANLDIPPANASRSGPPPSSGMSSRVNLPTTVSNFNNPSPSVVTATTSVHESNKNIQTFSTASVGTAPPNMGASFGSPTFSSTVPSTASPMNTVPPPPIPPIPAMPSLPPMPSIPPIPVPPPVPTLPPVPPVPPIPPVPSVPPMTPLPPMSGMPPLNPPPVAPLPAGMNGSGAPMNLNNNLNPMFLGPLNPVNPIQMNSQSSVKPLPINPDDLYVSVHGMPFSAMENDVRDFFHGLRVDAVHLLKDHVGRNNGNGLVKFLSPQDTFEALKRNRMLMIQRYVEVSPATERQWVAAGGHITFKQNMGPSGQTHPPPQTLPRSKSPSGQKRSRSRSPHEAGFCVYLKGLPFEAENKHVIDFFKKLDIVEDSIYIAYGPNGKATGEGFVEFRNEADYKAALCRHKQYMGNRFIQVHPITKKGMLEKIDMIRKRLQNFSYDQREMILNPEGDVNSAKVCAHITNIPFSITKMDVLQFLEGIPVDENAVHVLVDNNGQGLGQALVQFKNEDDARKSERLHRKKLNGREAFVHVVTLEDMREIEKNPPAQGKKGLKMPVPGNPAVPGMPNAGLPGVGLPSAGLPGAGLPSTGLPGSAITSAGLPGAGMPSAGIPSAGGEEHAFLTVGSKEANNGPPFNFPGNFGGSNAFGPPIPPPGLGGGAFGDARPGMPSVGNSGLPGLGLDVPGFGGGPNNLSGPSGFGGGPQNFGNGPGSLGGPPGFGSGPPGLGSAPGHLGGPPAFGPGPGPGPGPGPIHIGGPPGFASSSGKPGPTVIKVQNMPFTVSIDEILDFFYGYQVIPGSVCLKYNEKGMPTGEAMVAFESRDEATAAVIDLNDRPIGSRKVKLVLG
UniProt Q9Y3D6, sequence (Q9Y3D6 whole entry): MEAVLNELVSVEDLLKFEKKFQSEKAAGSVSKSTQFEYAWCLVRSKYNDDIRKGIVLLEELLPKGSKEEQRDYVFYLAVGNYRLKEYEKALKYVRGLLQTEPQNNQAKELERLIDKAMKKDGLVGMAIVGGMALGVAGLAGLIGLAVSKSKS
UniProt Q9Y6K9, sequence (Q9Y6K9 whole entry): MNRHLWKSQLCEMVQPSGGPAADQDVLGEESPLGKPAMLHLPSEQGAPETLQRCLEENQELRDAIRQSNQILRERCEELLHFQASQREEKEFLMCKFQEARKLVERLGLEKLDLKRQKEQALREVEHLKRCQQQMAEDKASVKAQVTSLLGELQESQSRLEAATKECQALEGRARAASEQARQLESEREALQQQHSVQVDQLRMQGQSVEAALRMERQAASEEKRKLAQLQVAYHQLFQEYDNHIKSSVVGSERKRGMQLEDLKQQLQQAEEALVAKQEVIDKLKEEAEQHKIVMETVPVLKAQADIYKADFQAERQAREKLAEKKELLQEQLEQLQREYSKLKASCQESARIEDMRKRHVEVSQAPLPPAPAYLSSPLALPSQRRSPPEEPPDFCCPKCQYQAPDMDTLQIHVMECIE
UniProt Q15583, sequence (Q15583 whole entry): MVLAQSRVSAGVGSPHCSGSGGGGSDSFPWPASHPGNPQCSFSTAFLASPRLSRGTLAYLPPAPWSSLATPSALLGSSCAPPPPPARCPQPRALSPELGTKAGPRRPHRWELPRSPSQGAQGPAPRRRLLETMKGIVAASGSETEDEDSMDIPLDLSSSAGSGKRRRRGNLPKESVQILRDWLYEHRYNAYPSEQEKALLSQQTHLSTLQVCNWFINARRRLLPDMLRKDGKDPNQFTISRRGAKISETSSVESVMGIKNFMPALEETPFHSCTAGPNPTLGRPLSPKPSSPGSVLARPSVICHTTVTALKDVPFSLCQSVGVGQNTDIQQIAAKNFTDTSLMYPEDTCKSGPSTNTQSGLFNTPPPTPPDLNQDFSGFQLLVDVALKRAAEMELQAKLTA
UniProt Q9NXA8, sequence (Q9NXA8 whole entry, looked up): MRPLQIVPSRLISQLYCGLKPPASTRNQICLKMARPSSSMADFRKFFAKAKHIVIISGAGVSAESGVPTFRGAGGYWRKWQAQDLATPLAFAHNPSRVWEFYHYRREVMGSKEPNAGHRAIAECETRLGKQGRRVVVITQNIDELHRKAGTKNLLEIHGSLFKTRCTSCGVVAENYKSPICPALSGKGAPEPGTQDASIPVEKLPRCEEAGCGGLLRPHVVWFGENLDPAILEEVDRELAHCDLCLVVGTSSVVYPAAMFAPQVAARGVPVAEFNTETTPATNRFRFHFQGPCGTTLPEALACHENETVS
UniProt Q9NPE3, sequence (Q9NPE3 whole entry): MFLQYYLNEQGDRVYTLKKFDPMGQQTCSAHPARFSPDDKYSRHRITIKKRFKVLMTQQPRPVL

Target | thermal stability z-score (lipoamide; [1]) | thermal stability z-score (lipoamide; arsenate co-treatment: none) | thermal stability z-score (potassium arsenate)
PDE8A (UniProt O60658) | 0.244 | 0.225 | 0.167
STX4 (UniProt Q12846) | 0.741 | 0.546 | -0.199
ZC3H18 (UniProt Q86VM9) | 1.11 | 0.987 | -1.11
FIS1 (UniProt Q9Y3D6) | -0.114 | 0.595 | -0.678
MOV10 (UniProt Q9HCE1) | -0.0627 | 0.31 | -0.16
RPS6 (UniProt P62753) | 1.06 | 0.834 | -0.404
ACADSB (UniProt P45954) | 0.39 | 0.509 | 0.00788
IKBKG (UniProt Q9Y6K9) | -0.275 | -0.162 | -0.992
GNL2 (UniProt Q13823) | -0.195 | -0.0312 | -1.8
PNISR (UniProt Q8TF01) | 1.06 | 0.149 | -0.509
VPS50 (UniProt Q96JG6) | -0.564 | -0.541 | 0.134
DNAJA1 (UniProt P31689) | -1.05 | -0.818 | -0.452
UQCC1 (UniProt Q9NVA1) | 0.493 | 0.855 | 1.5
FMNL1 (UniProt O95466) | -0.412 | -0.507 | -0.153
CNP (UniProt P09543) | 1.14 | 0.855 | -0.287
SORCS2 (UniProt Q96PQ0) | -0.156 | -0.45 | -0.319
CLSPN (UniProt Q9HAW4) | -0.352 | 0.214 | 1.12
EDF1 (UniProt O60869) | 0.657 | 0.578 | 0.199

Target | thermal stability z-score (lipoamide; [1]) | thermal stability z-score (lipoamide; arsenate co-treatment: none) | thermal stability z-score (potassium arsenate)
HNRNPH3 (UniProt P31942) | -0.175 | 0.0351 | -0.243
UVRAG (UniProt Q9P2Y5) | -0.0868 | -0.247 | -0.352
PDAP1 (UniProt Q13442) | 0.179 | 0.298 | -0.0329
DNAJC9 (UniProt Q8WXX5) | 0.604 | 0.566 | -2.09
PSMA7 (UniProt O14818) | 0.939 | 0.898 | 0.38
DYM (UniProt Q7RTS9) | 0.487 | -0.0128 | -0.365
VCPIP1 (UniProt Q96JH7) | -0.216 | -0.156 | -0.233
ELMOD2 (UniProt Q8IZ81) | -0.403 | -0.238 | 0.198
RBM12 (UniProt Q9NTZ6) | -0.205 | -0.19 | -0.506
TGIF1 (UniProt Q15583) | -0.557 | -0.274 | -0.203
NOP10 (UniProt Q9NPE3) | 0.405 | -0.0767 | 0.522
BCAP31 (UniProt P51572) | 0.0788 | 0.099 | -0.144
KIF1BP (UniProt Q96EK5) | 0.371 | -0.0427 | 0.587
SH3BP5 (UniProt O60239) | 0.466 | -0.17 | -0.00483
BYSL (UniProt Q13895) | -0.197 | 0.349 | 0.424
SIRT5 (UniProt Q9NXA8) | -0.814 | -1.26 | -1.02
CTIF (UniProt O43310) | -0.164 | 0.404 | 0.233
LAP3 (UniProt P28838) | 0.405 | 0.407 | 1.29
